According to US12492356B2, “Oxa-sandalwood-type fragrance compounds” (SYMRISE AG, priority 2020, dated 2025):

Tested on: panel of at least four experts
Assay: Odor detection threshold (ODT), olfactometer TO8, DIN standard EN 13725
Conditions: for ODT / ODT in air: olfactometer TO8, panel of at least four experts, DIN EN 13725
Text: The odor detection threshold (in the following abbreviated as “ODT”) is defined as the lowest concentration of a certain odorous compound (gaseous, sensorially active substance) which is perceivable and thus which can be distinguished with certainty from a blank reference under standard conditions. Generally, lower ODT values are preferred as a lower amount of the fragrance compound is required in order to a achieve strong odor impressions and thus lower amounts can be used for perfuming. However, as the threshold depends on various factors such as concentration, solubility, partition coefficient between air and the olfactory active substance, vapor pressure, polarity, molecular mass etc., predictions referring to the ODT of a substance are difficult to make. Table 2 indicates the ODT values of preferred embodiment in comparison to commercially available Brahmanol® (Symrise AG) and Sandranol® (Symrise AG). The ODT was measured using an olfactometer TO8 and a panel of at least four experts according to DIN standard EN 13725. According to the DIN standard EN 13725, the odor threshold value is defined as the concentration of an odorous substance at which, under defined test conditions, the probability of perceiving the sample is 0.5, i.e. 50% of the test persons indicate an odor perception. Thereby, the quantitative ODT value is given as the ratio of volume fractions of an odor-free comparison matrix, such as air, to the examined matrix at which the odor could just be perceived, i.e. a dilution factor.

| Structure (SMILES) | ODT | ODT in air [ng/L] | ODT value lower by a factor (comparator not named in the sentence (commercial analogue)) | threshold value reduced by the factor (in comparison to Brahmanol) (compared with Brahmanol) |
| --- | --- | --- | --- | --- |
| CC1=CCC(CCC(C)CO)C1(C)C (centres unmarked) [Brahmanol ®, 2-methyl-4-(2′,2′,3′-trimethyl-3′-cyclopenten-1′-yl)-butan-1-ol, reference compound] | 0.0173 ppm (v/v) | 6.9 | – | – |
| COCC1=CCC(C/C=C(\C)CO)C1(C)C (centres unmarked) [Compound 1, 4-[3-(Methoxymethyl)-2,2-dimethyl-cyclopent-3-en-1-yl]-2-methyl-but-2-en-1-ol] | 0.0089 ppm (v/v) | 7.1 | – | – |
| COCC1=CCC(CCC(C)CO)C1(C)C (centres unmarked) [Compound 2, 4-[3-(Methoxymethyl)-2,2-dimethyl-cyclopent-3-en-1-yl]-2-methyl-butan-1-ol] | 0.00285 ppm (v/v) | 7.6 | 3 | – |
| CC/C(=C\CC1CC=C(COC)C1(C)C)CO (centres unmarked) [Compound 3, 2-Ethyl-4-[3-(methoxymethyl)-2,2-dimethyl-cyclopent-3-en-1-yl]but-2-en-1-ol] | 0.0019 ppm (v/v) | 7.7 | – | about 10 |
| C=C(CC(C)CO)C1CC=C(COC)C1(C)C (centres unmarked) [Compound 4, 4-[3-(Methoxymethyl)-2,2-dimethyl-cyclopent-3-en-1-yl]-2-methyl-pent-4-en-1-ol] | 0.0025 ppm (v/v) | 7.6 | – | – |
| CC/C(=C\CC1CC=C(C)C1(C)C)CO (centres unmarked) [Sandranol ®, 2-ethyl-4-(2′,2′,3′-trimethyl-3′-cyclopenten-1′-yl)-2-buten-1-ol, reference compound] | 0.000205 ppm (v/v) | 7.6 | – | – |
